Here are results for three molecules from US11000033B2, “Ketone or oxime compound, and herbicide” (NISSAN CHEMICAL CORPORATION, priority 2014, dated 2021).

Assay type in all cases: in vivo
The subject of data set [1] is Digitaria ciliaris. Put plainly: Test Example 4: herbicidal effect by soil treatment (symbol F). Conditions: application herbicide amount 320 g/ha. In short, it runs like this: (§1)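 Seeds were sown in sterilized diluvial soil, covered with about 1.5 cm of soil, and the soil surface was sprayed with a water-diluted emulsion of the compound at a predetermined rate. Plants grew in a greenhouse at 25° C. to 30° C.; effects were scored visually 3 weeks after application.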

For data set [2], the system named is Echinochloa crus-galli var. crus-galli. As to the kind of experiment: Test Example 3: herbicidal effect by foliage application, Wagner pot (symbol H). Conditions: application herbicide amount 320 g/ha. The essentials:
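Plants sown in submerged alluvial soil (water depth 0.1–0.5 cm) in a 25–30 °C greenhouse and grown 14 days. An emulsion of the compound diluted in water to a set herbicide amount was sprayed uniformly on foliage. Effect on each plant scored 3 weeks after application.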

In data set [3] the test system is Lolium multiflorum Lam. As to the kind of experiment: Test Example 5: herbicidal effect by foliage application, plastic box (symbol K). The following applies: 320 g/ha, 3 weeks after application. In short, it runs like this: (§2)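 Herbicide, formulated as an emulsion and diluted in water, is sprayed onto the aerial parts of 14-day seedlings. These were grown at 25° C. to 30° C. in sterilized diluvial soil; effects are graded after 3 weeks.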

For data set [4], the system named is Digitaria ciliaris. As to the kind of experiment: Test Example 5: herbicidal effect by foliage application, plastic box (symbol F). The following applies: 320 g/ha, 3 weeks after application. The essentials:
as §2

Data set [5] concerns Galium spurium. As to the kind of experiment: Test Example 4: herbicidal effect by soil treatment (symbol Q). The following applies: application herbicide amount 320 g/ha. In short, it runs like this:
as §1

The test system of data set [6] is Alopecurus myosuroides. Put plainly: Test Example 5: herbicidal effect by foliage application, plastic box (symbol J). The following applies: 320 g/ha, 3 weeks after application. In short, it runs like this:
as §2

Data set [7] concerns Abutilon theophrasti. As to the kind of experiment: Test Example 5: herbicidal effect by foliage application, plastic box (symbol M). Conditions: 320 g/ha, 3 weeks after application. The essentials: as §2
In data set [8] the test system is transplanted rice plant. Put plainly: Test Example 1: effect on crop, application before weed generation in submerged conditions (symbol a). Conditions: application herbicide amount 320 g/ha. The essentials:
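Rice at 2.5 leaf stage transplanted into submerged soil (4 cm depth) sown with three weed species; herbicide applied before weed emergence.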

The subject of data set [9] is wheat. Put plainly: Test Example 4: effect on crop by soil treatment (symbol e). The following applies: application herbicide amount 320 g/ha. In short, it runs like this: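 Sterilized diluvial soil, spot sowing, ~1.5 cm soil cover; greenhouse 25–30° C.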
Data set [10] deals with directly sowed rice plant. As to the kind of experiment: Test Example 3: effect on crop by foliage application, Wagner pot (symbol b). Conditions: application herbicide amount 320 g/ha. The essentials: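 Greenhouse culture at 25–30 °C of seeded rice, Cyperus difformis, Leptochloa chinensis and Echinochloa crus-galli var. crus-galli, in alluvial soil held under 0.1–0.5 cm of water in a Wagner pot.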

In data set [11] the test system is Setaria viridis. Put plainly: Test Example 4: herbicidal effect by soil treatment (symbol G). Conditions: application herbicide amount 320 g/ha. The essentials:
as §1

The subject of data set [12] is Chenopodium album. As to the kind of experiment: Test Example 4: herbicidal effect by soil treatment (symbol O). The following applies: application herbicide amount 320 g/ha. In short, it runs like this:
as §1

For data set [13], the system named is Stellaria media. As to the kind of experiment: Test Example 5: herbicidal effect by foliage application, plastic box (symbol P). Conditions: 320 g/ha, 3 weeks after application. The essentials:
as §2

Data set [14] deals with Amaranthus retroflexus. As to the kind of experiment: Test Example 4: herbicidal effect by soil treatment (symbol N). The following applies: application herbicide amount 320 g/ha. In short, it runs like this:
as §1

For data set [15], the system named is Veronica persica. As to the kind of experiment: Test Example 4: herbicidal effect by soil treatment (symbol R). Conditions: application herbicide amount 320 g/ha. In short, it runs like this: as §1
Data set [16] relates to Lolium multiflorum Lam. As to the kind of experiment: Test Example 4: herbicidal effect by soil treatment (symbol K). The following applies: application herbicide amount 320 g/ha. The essentials: as §1
In data set [17] the test system is Chenopodium album. As to the kind of experiment: Test Example 5: herbicidal effect by foliage application, plastic box (symbol O). The following applies: 320 g/ha, 3 weeks after application. The essentials:
as §2

In data set [18] the test system is beet. As to the kind of experiment: Test Example 5: effect on crop by foliage application, plastic box (symbol f). Conditions: 320 g/ha, 3 weeks after application. In short, it runs like this:
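Crop and weed seeds sown in spots in sterilized diluvial soil in plastic boxes and covered with about 1.5 cm soil. Plants raised in a greenhouse at 25° C. to 30° C. for foliar application.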

As to `CON=C(C)CC1CC(OC(=O)N2CCOCC2)=C(c2c(C)cc(C)cc2OC)C1=O` (centres unmarked) [6-094], the “Herbicidal effect grade, F: Digitaria ciliaris” value in data set [1] is listed as 5 (Herbicidal ratio of 90% or more (almost completely withered)). In addition, in data set [2], the “herbicidal effect on H (Echinochloa crus-galli var. crus-galli), grade 0-5” value (“herbicidal effect on H” below) is 5 (Herbicidal ratio of 90% or more (almost completely withered)). The “K: Lolium multiflorum Lam., herbicidal effect (criteria of Test Example 1)” value in data set [3] is given as 5 (Herbicidal ratio of 90% or more (almost completely withered)). Further, the “F: Digitaria ciliaris, herbicidal effect (criteria of Test Example 1)” value in data set [4] was 5 (Herbicidal ratio of 90% or more (almost completely withered)). Further, in data set [5], the “Herbicidal effect grade, Q: Galium spurium” value is 0 (Herbicidal ratio of 5% or lower (almost no effect)). In addition, the “J: Alopecurus myosuroides, herbicidal effect (criteria of Test Example 1)” value (from here on “J: Alopecurus myosuroides”) in data set [6] is given as 5 (Herbicidal ratio of 90% or more (almost completely withered)). Further, in [7], the “M: Abutilon theophrasti, herbicidal effect (criteria of Test Example 1)” value is 4 (Herbicidal ratio of 70% or higher and lower than 90%). The “Effect grade on crop, a: transplanted rice plant” value (from here on “Effect grade on crop”) in data set [8] was 5 (Herbicidal ratio of 90% or more (almost completely withered)). The “Effect on crop grade, e: wheat” value in data set [9] is 0 (Herbicidal ratio of 5% or lower (almost no effect)). Also, the “effect on crop b (directly sowed rice plant), grade 0-5” value (“effect on crop b” for short) in [10] is given as 5 (Herbicidal ratio of 90% or more (almost completely withered)). Also, the “Herbicidal effect grade, G: Setaria viridis” value in data set [11] is on record as 5 (Herbicidal ratio of 90% or more (almost completely withered)). For the same molecule, the “Herbicidal effect grade, O: Chenopodium album” value in [12] is reported as 5 (Herbicidal ratio of 90% or more (almost completely withered)). Further, the “P: Stellaria media, herbicidal effect (criteria of Test Example 1)” value (shortened to “P: Stellaria media, herbicidal effect”) in data set [13] was 3 (Herbicidal ratio of 40% or higher and lower than 70%). For the same molecule, the “Herbicidal effect grade, N: Amaranthus retroflexus” value in [14] is listed as 0 (Herbicidal ratio of 5% or lower (almost no effect)). For the same molecule, the “Herbicidal effect grade, R: Veronica persica” value in data set [15] is 3 (Herbicidal ratio of 40% or higher and lower than 70%). Moreover, the “Herbicidal effect grade, K: Lolium multiflorum Lam.” value in data set [16] is 5 (Herbicidal ratio of 90% or more (almost completely withered)). Moreover, in data set [17], the “O: Chenopodium album, herbicidal effect (criteria of Test Example 1)” value is listed as 5 (Herbicidal ratio of 90% or more (almost completely withered)).
Consider `CCc1cc(-c2ccc(Cl)cc2)cc(C)c1C1=C(OC(=O)N2CCOCC2)CC(CC(C)=NOC)C1=O` (mixture of isomers) [6-064], for which the “F: Digitaria ciliaris, herbicidal effect grade” value in data set [1] is given as 5 (Herbicidal ratio of 90% or more (almost completely withered)). In addition, in data set [18], the “f: beet, effect on crop (criteria of Test Example 1)” value is 0 (Herbicidal ratio of 5% or lower (almost no effect)). In data set [2], the “herbicidal effect on H” value was 5 (Herbicidal ratio of 90% or more (almost completely withered)). In addition, in data set [3], the “K: Lolium multiflorum Lam., herbicidal effect (criteria of Test Example 1)” value is listed as 5 (Herbicidal ratio of 90% or more (almost completely withered)). The “F: Digitaria ciliaris, herbicidal effect (criteria of Test Example 1)” value in data set [4] is reported as 5 (Herbicidal ratio of 90% or more (almost completely withered)). Also, the “Q: Galium spurium, herbicidal effect grade” value in data set [5] is 0 (Herbicidal ratio of 5% or lower (almost no effect)). Moreover, in [6], the “J: Alopecurus myosuroides” value is 3 (Herbicidal ratio of 40% or higher and lower than 70%). Further, the “M: Abutilon theophrasti, herbicidal effect (criteria of Test Example 1)” value in data set [7] is 4 (Herbicidal ratio of 70% or higher and lower than 90%). The “Effect grade on crop” value in data set [8] is recorded as 5 (Herbicidal ratio of 90% or more (almost completely withered)). Also, the “e: wheat, effect on crop grade” value in [9] was 0 (Herbicidal ratio of 5% or lower (almost no effect)). Besides, the “effect on crop b” value in [10] is 4 (Herbicidal ratio of 70% or higher and lower than 90%). Also, the “G: Setaria viridis, herbicidal effect grade” value in [11] was 5 (Herbicidal ratio of 90% or more (almost completely withered)). For the same molecule, the “O: Chenopodium album, herbicidal effect grade” value in data set [12] was 0 (Herbicidal ratio of 5% or lower (almost no effect)). Also, the “P: Stellaria media, herbicidal effect” value in data set [13] is given as 0 (Herbicidal ratio of 5% or lower (almost no effect)). Also, in [14], the “N: Amaranthus retroflexus, herbicidal effect grade” value is recorded as 0 (Herbicidal ratio of 5% or lower (almost no effect)). In addition, the “R: Veronica persica, herbicidal effect grade” value in data set [15] is 0 (Herbicidal ratio of 5% or lower (almost no effect)). Besides, in [16], the “K: Lolium multiflorum Lam., herbicidal effect grade” value is 0 (Herbicidal ratio of 5% or lower (almost no effect)).
Turning to `CON=C(C)CC1CC(OC(=O)N2CCOCC2)=C(c2c(C)cc(-c3ccc(Cl)cc3F)cc2C)C1=O` (centres unmarked) [6-089], in data set [1], the “Herbicidal effect grade, F: Digitaria ciliaris” value is reported as 5 (Herbicidal ratio of 90% or more (almost completely withered)). Besides, the “f: beet, effect on crop (criteria of Test Example 1)” value in data set [18] was 0 (Herbicidal ratio of 5% or lower (almost no effect)). Also, the “herbicidal effect on H” value in data set [2] is listed as 5 (Herbicidal ratio of 90% or more (almost completely withered)). Further, the “K: Lolium multiflorum Lam., herbicidal effect (criteria of Test Example 1)” value in [3] is 4 (Herbicidal ratio of 70% or higher and lower than 90%). The “Herbicidal effect grade, Q: Galium spurium” value in data set [5] was 0 (Herbicidal ratio of 5% or lower (almost no effect)). In addition, the “J: Alopecurus myosuroides” value in [6] is listed as 5 (Herbicidal ratio of 90% or more (almost completely withered)). In data set [8], the “Effect grade on crop” value is reported as 5 (Herbicidal ratio of 90% or more (almost completely withered)). Also, the “Effect on crop grade, e: wheat” value in data set [9] was 0 (Herbicidal ratio of 5% or lower (almost no effect)). Also, the “effect on crop b” value in data set [10] was 5 (Herbicidal ratio of 90% or more (almost completely withered)). In addition, the “Herbicidal effect grade, G: Setaria viridis” value in [11] is 4 (Herbicidal ratio of 70% or higher and lower than 90%). In addition, the “Herbicidal effect grade, O: Chenopodium album” value in data set [12] is on record as 0 (Herbicidal ratio of 5% or lower (almost no effect)). Further, the “P: Stellaria media, herbicidal effect” value in data set [13] was 4 (Herbicidal ratio of 70% or higher and lower than 90%). The “Herbicidal effect grade, N: Amaranthus retroflexus” value in data set [14] was 0 (Herbicidal ratio of 5% or lower (almost no effect)). Further, the “Herbicidal effect grade, R: Veronica persica” value in [15] is recorded as 0 (Herbicidal ratio of 5% or lower (almost no effect)). Also, in [16], the “Herbicidal effect grade, K: Lolium multiflorum Lam.” value is 3 (Herbicidal ratio of 40% or higher and lower than 70%). For the same molecule, in data set [17], the “O: Chenopodium album, herbicidal effect (criteria of Test Example 1)” value was 4 (Herbicidal ratio of 70% or higher and lower than 90%).
